Test results from PubChem BioAssay AID2812 (Southern Research Specialized Biocontainment Screening …, 2010).
Calls of active or inactive are those of the source. How the calls were made is not given here.

Test system: MAGI host cells cytotoxicity, % cell control, 5% serum
Experiment: MAGI cell viability under compound exposure – 5% and 10% serum, set 2, cytotoxicity control for HIV-1 antiviral project, dose response (AID 2812)
[1] = MAGI host cells cytotoxicity, % cell control, 10% serum

Cc1ccc(-n2cccc2/C=C2/C(=N)N3C(=NC2=O)SN=C3S(C)(=O)=O)cc1Cl was tested, and the TC50 was > 100 µM (inactive) and the TC50 [1] was greater than 100 µM.
COc1ccc(C(=O)Oc2ccc(C=NNc3ccc(Cl)c(C(=O)O)c3)cc2OC)cc1 was tested, and the TC50 was > 100 µM (inactive) and the TC50 [1] was greater than 100 µM.
O=C(O)c1cc(NN=Cc2ccc(-c3ccccc3)cc2)ccc1Cl was tested, and the TC50 was > 100 µM (inactive) and the TC50 [1] was greater than 100 µM.
In the case of CC1(C)CC(=O)C2=C(C1)c1c(ccc3ccccc13)NC2c1cc([N+](=O)[O-])cc([N+](=O)[O-])c1O (stereo not given), the TC50 was 58.6 µM and the TC50 [1] was greater than 100 µM.
With Cc1ccc(-n2c(O)c(C=Nc3ccccc3-c3n[nH]c(=S)[nH]c3=O)c3ccccc3c2=O)c(C)c1 the TC50 [1] was greater than 100 µM.
COc1ccccc1NS(=O)(=O)c1cccc(-n2c(O)c(C=Nc3ccccc3C(=O)O)c3ccccc3c2=O)c1 showed a TC50 of 93.7 µM and a TC50 [1] greater than 100 µM.
With CS(=O)(=O)C1=NSC2=NC(=O)/C(=C\c3ccc(OS(=O)(=O)c4ccccc4)cc3)C(=N)N21 the TC50 was > 100 µM (inactive) and the TC50 [1] was greater than 100 µM.
CC(C)S(=O)(=O)C1=NSC2=NC(=O)/C(=C\c3ccc(-c4cccc(C(=O)O)c4)o3)C(=N)N21 was tested, and the TC50 was > 100 µM (inactive) and the TC50 [1] was greater than 100 µM.
CCS(=O)(=O)C1=NSC2=NC(=O)/C(=C\c3ccc(OS(=O)(=O)c4ccccc4)cc3)C(=N)N21 was tested, and the TC50 was > 100 µM (inactive) and the TC50 [1] was greater than 100 µM.
Work on COc1ccc(OC)c(N2C(=O)/C(=C/c3ccco3)C(=O)NC2=S)c1 yielded a TC50 [1] greater than 100 µM.
With O=c1c(=Cc2cc([N+](=O)[O-])cc([N+](=O)[O-])c2O)sc2nc3ccccc3n12 the TC50 was > 100 µM (inactive) and the TC50 [1] was greater than 100 µM.
COc1cc(C=NNc2ccc(Cl)c(C(=O)O)c2)ccc1OC(=O)c1ccc(F)cc1 was tested, and the TC50 was > 100 µM (inactive) and the TC50 [1] was greater than 100 µM.
CC(C)S(=O)(=O)C1=NSC2=NC(=O)/C(=C\c3ccc(-c4ccccc4)o3)C(=N)N21 gave a TC50 of 74 µM and a TC50 [1] greater than 100 µM.
Compound Cc1cc(C)cc(-n2cccc2/C=C2/C(=N)N3C(=NC2=O)SN=C3S(C)(=O)=O)c1 has a TC50 of 79.5 µM and a TC50 [1] greater than 100 µM.
In the case of CS(=O)(=O)C1=NSC2=NC(=O)/C(=C\c3cccn3-c3ccc(Cl)cc3)C(=N)N21, the TC50 was > 100 µM (inactive) and the TC50 [1] was greater than 100 µM.
COc1cc(C=NNc2ccc(Cl)c(C(=O)O)c2)ccc1OC(=O)c1ccccc1F was tested, and the TC50 was > 100 µM (inactive) and the TC50 [1] was greater than 100 µM.
O=C1NC(=S)N(c2ccc(F)cc2)C(=O)/C1=C/c1ccco1 showed a TC50 [1] greater than 100 µM.
In the case of O=C(O)c1ccccc1C(=O)N(Cc1cccc(Oc2ccc(Cl)cc2)c1)[C@H]1CCCc2ccccc21, the TC50 was 56.4 µM and the TC50 [1] was greater than 100 µM.
With Cc1ccc(S(=O)(=O)Oc2ccc(/C=C3/C(=N)N4C(=NC3=O)SN=C4S(C)(=O)=O)cc2)cc1 the TC50 was > 100 µM (inactive) and the TC50 [1] was greater than 100 µM.
